Reference: article PMC11275057, “Biochemical and Functional Profiling of Thioredoxin-Dependent Cytosolic GPX-like Proteins in Euglena gracilis” (Biomolecules, 2024)

Experiments:
rEgGPXL-4 = tested on: T1, rEgGPXL-4; assay: NADPH oxidation at […] nm, thioredoxin/thioredoxin reductase coupled; assay type: biochemical, Euglena gracilis; conditions: 6 µM yeast Trx-2 as electron donor, 0.3 µM yeast Trx reductase, 0.2 mM NADPH, 20 mM HEPES-NaOH pH 7.5; t-BOOH up to 0.04 mM
T1 construct: gene EgGPXL-4; full-length ORF, 159 residues, no signal peptide, pCold-II 6xHis tag, E. coli BL21, TALON purified, about 18-20 kDa; plant-type GPX; cDNA 787 bp; printed Cys-64, Gln-66, Phe-67, Glu-71, Gly-100, Asn-126, Phe-127, Lys-129, Gly-136

rEgGPXL-2 = tested on: T2, rEgGPXL-2; assay: as above; assay type: biochemical, Euglena gracilis; conditions: 6 µM yeast Trx-2 as electron donor, 0.3 µM yeast Trx reductase, 0.2 mM NADPH, 20 mM HEPES-NaOH pH 7.5; t-BOOH up to 0.04 mM
T2 construct: gene EgGPXL-2; full-length ORF, 173 residues, no signal peptide, pCold-II 6xHis tag, E. coli BL21, TALON purified, about 18-20 kDa; animal-type GPX, Cys-45 in place of Sec; cDNA 737 bp

CC(C)(C)OO [t-BOOH]
Km (rEgGPXL-4): 38.5 ± 1.6 µM
Km (rEgGPXL-2): 28.5 ± 3.1 µM
